Experimental data from patent US10517889B2, “Modulators of SMAD7 expression” (Ionis Pharmaceuticals, Inc., priority 2017, dated 2019).
Strand notation (5' to 3'): a small letter for the sugar, then the base; units joined by * are phosphorothioate-linked, units joined directly phosphodiester-linked; [ ] holds rarer units or linkages, { } end groups; capitals alone tell only the bases. k = constrained ethyl (cEt); [5mC] = 5-methylcytosine; d = 2'-deoxy (DNA)

Each substance was assayed on human SMAD7 mRNA (assay: Antisense inhibition of human SMAD7 mRNA expression in Hep3B cells by 3-10-3 cEt gapmers, 10,000 nM, electroporation (Example 2)). Conditions: Hep3B cells, 10,000 nM antisense oligonucleotide, electroporation, approximately 24 hours, RT-PCR primer probe set RTS5062, relative to untreated control cells.
Type: cell-based
In short: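 Hep3B cells (20,000/well) were electroporated with 10,000 nM 3-10-3 cEt gapmer (16-mer, phosphorothioate, 5-methylcytosines) and harvested after about 24 h. SMAD7 mRNA quantified by RT-qPCR with primer probe set RTS5062, normalized to total RNA by RiboGreen; percent inhibition relative to untreated cells.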

| Substance | % Inhibition [%] |
| --- | --- |
| 800050 (antisense kG*k[5mC]*kT*dT*dA*dT*dT*dT*dT*d[5mC]*d[5mC]*d[5mC]*dA*kA*kT*kT) [compound 800050] | 10 |
| 800077 (antisense k[5mC]*k[5mC]*kT*dT*dA*dA*d[5mC]*dA*dA*dA*dG*d[5mC]*dT*kT*k[5mC]*k[5mC]) [compound 800077] | 36 |
| 799977 (kG*kG*kA*d[5mC]*dA*dT*d[5mC]*dT*d[5mC]*dA*dA*dA*dG*kG*kT*kT; antisense) [compound 799977] | 36 |
| 800056 (antisense kT*kG*k[5mC]*dT*dA*dA*dT*dA*dA*dA*d[5mC]*dT*dT*kG*kT*kG) [compound 800056] | 7 |
| 800072 (antisense kG*kA*k[5mC]*dT*dT*dG*dG*dG*dA*d[5mC]*d[5mC]*dA*dT*kA*kA*kA) [compound 800072] | 0 |
| 798819 (kT*k[5mC]*k[5mC]*d[5mC]*dA*dG*dT*dA*dT*dG*d[5mC]*d[5mC]*dA*k[5mC]*k[5mC]*kA; antisense) [compound 798819] | 0 |
| 799991 (kG*kG*k[5mC]*d[5mC]*dG*d[5mC]*d[5mC]*dT*d[5mC]*d[5mC]*dT*dG*d[5mC]*kA*kG*kG; antisense) [compound 799991] | 19 |
| 798890 (k[5mC]*kT*kT*d[5mC]*dA*d[5mC]*dA*dA*dA*dG*d[5mC]*dT*dG*kA*kT*k[5mC]; antisense) [compound 798890] | 40 |

Same assay, conditions: Hep3B cells, electroporation with 10,000 nM antisense oligonucleotide, approximately 24 hours, RTS5062, percent inhibition of SMAD7 mRNA relative to untreated control cells

| Substance | % Inhibition [%] |
| --- | --- |
| 799741 (antisense kA*kG*kT*dT*dA*dT*d[5mC]*dA*d[5mC]*d[5mC]*d[5mC]*dT*dG*kT*kT*kT) [compound 799741] | 32 |

Same assay, conditions: Hep3B cells, electroporation with 10,000 nM antisense oligonucleotide, approximately 24 hours, SMAD7 mRNA by RT-PCR (RTS5062), relative to untreated control cells

| Substance | % Inhibition [%] |
| --- | --- |
| 800065 (antisense kT*kT*kA*dA*dG*dT*dA*dG*d[5mC]*dA*dG*d[5mC]*d[5mC]*kA*kG*kT) [compound 800065] | 55 |
| 798756 (k[5mC]*kG*k[5mC]*d[5mC]*d[5mC]*d[5mC]*d[5mC]*dG*dG*dG*d[5mC]*d[5mC]*d[5mC]*kA*kG*k[5mC]; antisense) [compound 798756] | 16 |
| 830197 (antisense kG*kT*kT*dA*dA*dT*dG*dG*d[5mC]*d[5mC]*d[5mC]*dA*dG*k[5mC]*k[5mC]*k[5mC]) [compound 830197] | 31 |
| 798920 (kG*k[5mC]*k[5mC]*dT*dG*d[5mC]*dT*d[5mC]*dA*dG*d[5mC]*dT*d[5mC]*kA*k[5mC]*kG; antisense) [compound 798920] | 58 |
| 799984 (kA*k[5mC]*kA*dT*d[5mC]*dA*d[5mC]*d[5mC]*dA*d[5mC]*dG*d[5mC]*d[5mC]*kT*k[5mC]*kG; antisense) [compound 799984] | 61 |
| 798681 (antisense kG*kA*kA*d[5mC]*dA*dT*dG*dA*d[5mC]*d[5mC]*dT*d[5mC]*d[5mC]*kG*k[5mC]*kA) [compound 798681] | 29 |
| 830094 (kT*k[5mC]*kT*dT*dA*d[5mC]*d[5mC]*dT*dG*dA*dA*dA*dG*k[5mC]*k[5mC]*k[5mC]; antisense) [compound 830094] | 30 |
| 799942 (antisense kA*kA*k[5mC]*dA*d[5mC]*dT*dG*dG*dT*dT*d[5mC]*d[5mC]*dA*kT*kT*kT) [compound 799942] | 0 |
| 799508 (antisense kG*k[5mC]*kA*dA*dT*dT*dA*dA*dA*dG*d[5mC]*dA*dA*kA*kA*k[5mC]) [compound 799508] | 0 |
| 830023 (antisense kT*k[5mC]*kA*d[5mC]*dA*dT*dG*d[5mC]*dT*dT*dT*dG*d[5mC]*kG*kG*kG) [compound 830023] | 57 |
| 799434 (antisense kT*kG*kA*dA*dA*d[5mC]*dA*d[5mC]*dG*dG*dG*dA*dA*kG*k[5mC]*kA) [compound 799434] | 37 |

Same assay, conditions: Hep3B cells, electroporation with 10,000 nM antisense oligonucleotide, approximately 24 hours, primer probe set RTS5062, relative to untreated control cells

| Substance | % Inhibition [%] | % inhibition of SMAD7 mRNA expression [%] |
| --- | --- | --- |
| 790545 (kA*kA*kA*dG*dA*dG*dT*dT*dT*dG*d[5mC]*dA*dT*kG*kA*kA; antisense) [compound 790545] | 24 |  |
| 799208 (kT*kG*kA*dT*dG*d[5mC]*dT*dT*dA*dT*dA*dA*dA*kA*k[5mC]*kG; antisense) [compound 799208] | 15 |  |
| 799128 (antisense k[5mC]*k[5mC]*k[5mC]*dA*dG*dG*dG*dA*d[5mC]*dA*dT*d[5mC]*d[5mC]*k[5mC]*k[5mC]*kG) [compound 799128] |  | 63 |
| 798807 (kA*kT*k[5mC]*dT*dG*dA*dA*dA*dG*d[5mC]*d[5mC]*d[5mC]*d[5mC]*k[5mC]*k[5mC]*kA; antisense) [compound 798807] |  | 64 |
| 798960 (antisense kA*k[5mC]*k[5mC]*d[5mC]*d[5mC]*d[5mC]*dA*dA*d[5mC]*dA*dA*dT*dT*k[5mC]*kT*kT) [compound 798960] | 39 |  |
| 799326 (kA*k[5mC]*kA*d[5mC]*dT*d[5mC]*dT*d[5mC]*d[5mC]*d[5mC]*dA*dG*dG*kA*kG*kG; antisense) [compound 799326] |  | 31 |
| 799133 (antisense kG*k[5mC]*kT*dA*dA*dG*d[5mC]*dA*dT*dG*dT*d[5mC]*d[5mC]*k[5mC]*kT*k[5mC]) [compound 799133] | 17 |  |
| 799211 (kA*k[5mC]*kA*dT*dA*dA*dA*dT*dA*dA*dT*dG*dA*kT*kG*k[5mC]; antisense) [compound 799211] | 0 |  |
| 799152 (antisense kT*kG*kT*d[5mC]*dA*dG*d[5mC]*d[5mC]*dT*dA*dG*dG*dA*kT*kG*kG) [compound 799152] |  | 33 |
| 799344 (k[5mC]*k[5mC]*k[5mC]*dA*d[5mC]*dT*dA*dA*dT*d[5mC]*dT*dA*d[5mC]*kA*kG*kA; antisense) [compound 799344] |  | 34 |
| 798939 (antisense kA*k[5mC]*kG*dA*d[5mC]*d[5mC]*dA*dA*dA*dG*dA*dG*dT*kT*kT*kG) [compound 798939] | 46 |  |
| 799442 (antisense kG*kA*kT*dT*dT*dT*dA*dA*dA*dA*dG*dA*dG*kG*k[5mC]*k[5mC]) [compound 799442] |  | 0 |
| 798944 (antisense kA*kA*kA*d[5mC]*dG*dA*dG*dG*dA*d[5mC]*dG*dA*dG*kA*kA*kG) [compound 798944] |  | 3 |

Same assay, conditions: Hep3B cells, electroporation, 10,000 nM antisense oligonucleotide, approximately 24 hours, RTS5062, relative to untreated control cells

| Substance | % inhibition of SMAD7 mRNA expression [%] |
| --- | --- |
| 799300 (antisense k[5mC]*kA*k[5mC]*dA*dT*dT*d[5mC]*d[5mC]*dA*dA*dA*dA*dG*kG*k[5mC]*kT) [compound 799300] | 28 |

Same assay, conditions: SMAD7 mRNA, Hep3B cells, 10,000 nM antisense oligonucleotide, electroporation, approximately 24 hours, primer probe set RTS5062, relative to untreated control cells

| Substance | % Inhibition [%] |
| --- | --- |
| 772584 (kG*kA*kA*dG*dT*dT*dG*dG*dG*dA*dA*dT*d[5mC]*kT*kG*kA; antisense) [compound 772584] | 4 |
| 829782 (antisense kA*kT*k[5mC]*d[5mC]*dG*dG*d[5mC]*d[5mC]*dA*d[5mC]*d[5mC]*dT*dG*kA*kA*k[5mC]) [compound 829782] | 36 |

Same assay, conditions: SMAD7 mRNA, Hep3B cells, electroporation with 10,000 nM antisense oligonucleotide, approximately 24 hours, primer probe set RTS5062, relative to untreated control cells

| Substance | % Inhibition [%] |
| --- | --- |
| 829999 (k[5mC]*kT*kG*dT*dT*dT*dG*dT*d[5mC]*dT*dT*dA*dG*k[5mC]*kT*kG; antisense) [compound 829999] | 46 |
| 829991 (kA*kG*kG*dG*d[5mC]*d[5mC]*dG*d[5mC]*dG*dA*dG*dG*d[5mC]*kG*kG*kT; antisense) [compound 829991] | 26 |
| 829839 (kA*k[5mC]*kA*d[5mC]*dA*dG*dT*dA*dG*dA*dG*d[5mC]*d[5mC]*kT*k[5mC]*k[5mC]; antisense) [compound 829839] | 8 |
